Values after ≈ are worked out from the molar mass of the structure shown.
Tests used:
Assay in all cases: In vitro antibacterial activity, MIC by agar dilution
Assay type in all cases: cell-based
Conditions in all cases: BHI agar, 35-37°C, 20-24 hours, unit assumed
[1] = test system: Escherichia coli SS
Protocol: (§1) Each plate was inoculated with 1:100 (or 1:10 for slow growing strains, primarily Micrococcus and Streptococcus) dilutions of up to 32 different microorganisms, using a Steers replicator block calibrated to deliver approximately 10^4 colony forming units (CFUs). The inoculated plates were incubated at from about 35°C to about 37°C for approximately 20-24 hours. In addition, a control plate using BHI agar containing no test compound was prepared and incubated at the beginning and at the end of each test. Ciprofloxacin was used as the control antibiotic.
(§2) The MIC was defined as the lowest concentration of test compound yielding no growth (a slight haze or sparsely isolated colonies at the inoculum spot) as compared to the growth control containing no test compound.

[2] = test system: Escherichia coli DC-2
Protocol: as §1, §2

[3] = test system: Pseudomonas aeruginosa 5263
Protocol: as §1, §2

[4] = test system: Staphylococcus aureus A5177
Protocol: as §1, §2

[5] = test system: Micrococcus luteus ATCC 4698
Protocol: as §1, §2

[6] = test system: Escherichia coli KNK 437
Protocol: as §1, §2

[7] = test system: Escherichia coli H560
Protocol: as §1, §2

[8] = test system: Pseudomonas aeruginosa K799/61
Protocol: as §1, §2

[9] = test system: Staphylococcus aureus A-5278
Protocol: as §1, §2

[10] = test system: Staphylococcus aureus 642A
Protocol: as §1, §2

[11] = test system: Streptococcus pyrogenes EES61
Protocol: as §1, §2

[12] = test system: Streptococcus bovis A5169
Protocol: as §1, §2

[13] = test system: Pseudomonas aeruginosa 2862
Protocol: as §1, §2

[14] = test system: Enterobacter aerogenes ATCC 13048
Protocol: as §1, §2

[15] = test system: Acinetobacter calcoaceticus CMX 669
Protocol: as §1, §2

[16] = test system: Staphylococcus aureus NCTC 10649
Protocol: as §1, §2

[17] = test system: Enterococcus faecium ATCC 8043
Protocol: as §1, §2

[18] = test system: Pseudomonas aeruginosa BMH10
Protocol: as §1, §2

[19] = test system: Micrococcus luteus ATCC 9341
Protocol: as §1, §2

[20] = test system: Staphylococcus aureus CMX 553
Protocol: as §1, §2

[21] = test system: Streptococcus pyrogenes 2548 INDUC
Protocol: as §1, §2

[22] = test system: Providencia stuartii CMX 640
Protocol: as §1, §2

[23] = test system: Streptococcus pyrogenes CONST
Protocol: as §1, §2

[24] = test system: Pseudomonas cepacia 296I
Protocol: as §1, §2

[25] = test system: Staphylococcus aureus ATCC 6538P
Protocol: as §1, §2

[26] = test system: Staphylococcus aureus 1775
Protocol: as §1, §2

[27] = test system: Klebsiella pneumoniae ATCC 8045
Protocol: as §1, §2

[28] = test system: Escherichia coli JUHL
Protocol: as §1, §2

[29] = test system: Pseudomonas aeruginosa K799/WT
Protocol: as §1, §2

[30] = test system: Streptococcus agalactaciae CMX 508
Protocol: as §1, §2

[31] = test system: Pseudomonas aeruginosa A5007
Protocol: as §1, §2

[32] = test system: Staphylococcus epidermidis 3519
Protocol: as §1, §2

SMILES | MIC values [1] [ng/mL] | MIC values [2] [µg/mL] | MIC values [3] [µg/mL] | MIC values [4] [µg/mL] | MIC values [5] [µg/mL] | MIC values [6] [µg/mL] | MIC values [7] [µg/mL] | MIC values [8] [µg/mL] | MIC values [9] [µg/mL] | MIC values [10] [µg/mL] | MIC values [11] [µg/mL] | MIC values [12] [µg/mL] | MIC values [13] [µg/mL] | MIC values [14] [µg/mL] | MIC values [15] [µg/mL] | MIC values [16] [µg/mL] | MIC values [17] [µg/mL] | MIC values [18] [µg/mL] | MIC values [19] [µg/mL] | MIC values [20] [µg/mL] | also measured
CN1CCN(c2nc3c(-c4ccc(F)cc4F)cc(C(=O)O)c(=O)n3cc2F)CC1 [Example 159, 9-(2,4-Difluorophenyl)-3-fluoro-2-(4-methylpiperazin-1-yl)-6H-6-oxopyridol[1,2-a]pyrimidine-7-carboxylic acid] | 20 (≈ 0.0478 µM) | 6.2 (≈ 14.8 µM) | > 100 | 0.39 (≈ 0.932 µM) | 12.5 (≈ 29.9 µM) | 6.2 (≈ 14.8 µM) | 0.39 (≈ 0.932 µM) | 0.39 (≈ 0.932 µM) | 0.2 (≈ 0.478 µM) | 0.39 (≈ 0.932 µM) | 3.1 (≈ 7.41 µM) | 12.5 (≈ 29.9 µM) | > 100 | 0.78 (≈ 1.86 µM) | 0.78 (≈ 1.86 µM) | 0.2 (≈ 0.478 µM) | 6.2 (≈ 14.8 µM) | 3.1 (≈ 7.41 µM) | 25 (≈ 59.8 µM) | 0.39 (≈ 0.932 µM) | MIC values [21]: 3.1 µg/mL (≈ 7.41 µM); MIC values [22]: 25 µg/mL (≈ 59.8 µM); MIC values [23]: 3.1 µg/mL (≈ 7.41 µM); MIC values [24]: 25 µg/mL (≈ 59.8 µM); MIC values [25]: 0.2 µg/mL (≈ 0.478 µM); MIC values [26]: > 100 µg/mL; MIC values [27]: 0.2 µg/mL (≈ 0.478 µM); MIC values [28]: 0.39 µg/mL (≈ 0.932 µM); MIC values [29]: 3.1 µg/mL (≈ 7.41 µM); MIC values [30]: 3.1 µg/mL (≈ 7.41 µM); MIC values [31]: 6.2 µg/mL (≈ 14.8 µM); MIC values [32]: 0.39 µg/mL (≈ 0.932 µM)
CC(C)(C)OC(=O)NC1CCN(c2nc3c(-c4ccc(F)cc4F)cc(C(=O)O)c(=O)n3cc2F)C1 (stereo not drawn) [Example 160, 2-(3-(N-t-butoxycarbonyl)aminopyrrolidin-1-yl)-9-(2,4-difluorophenyl)-3-fluoro-6H-6-oxopyrido[1,2-a]pyrimidine-7-carboxylic acid] | 5 (≈ 0.00991 µM) | 25 (≈ 49.6 µM) | > 100 | 0.39 (≈ 0.773 µM) | 0.78 (≈ 1.55 µM) | 25 (≈ 49.6 µM) | 3.1 (≈ 6.15 µM) | 3.1 (≈ 6.15 µM) | 0.2 (≈ 0.396 µM) | 0.2 (≈ 0.396 µM) | 1.56 (≈ 3.09 µM) | 6.2 (≈ 12.3 µM) | > 100 | 12.5 (≈ 24.8 µM) | 3.1 (≈ 6.15 µM) | 0.2 (≈ 0.396 µM) | 3.1 (≈ 6.15 µM) | 12.5 (≈ 24.8 µM) | 6.2 (≈ 12.3 µM) | 0.39 (≈ 0.773 µM) | MIC values [21]: 0.78 µg/mL (≈ 1.55 µM); MIC values [22]: > 100 µg/mL; MIC values [23]: 1.56 µg/mL (≈ 3.09 µM); MIC values [24]: > 100 µg/mL; MIC values [25]: 0.2 µg/mL (≈ 0.396 µM); MIC values [26]: 100 µg/mL (≈ 198 µM); MIC values [27]: 1.56 µg/mL (≈ 3.09 µM); MIC values [28]: 0.39 µg/mL (≈ 0.773 µM); MIC values [29]: 12.5 µg/mL (≈ 24.8 µM); MIC values [30]: 1.56 µg/mL (≈ 3.09 µM); MIC values [31]: 25 µg/mL (≈ 49.6 µM); MIC values [32]: 0.39 µg/mL (≈ 0.773 µM)
NC1CCN(c2nc3c(-c4ccc(F)cc4F)cc(C(=O)O)c(=O)n3cc2F)C1 (stereo not drawn) [Example 161, 2-(3-Aminopyrrolidin-1-yl)-9-(2,4-difluorophenyl)-3-fluoro-6H-6-oxopyrido[1,2-a]pyrimidine-7-carboxylic acid] | 5 (≈ 0.0124 µM) | 0.2 (≈ 0.495 µM) | 100 (≈ 247 µM) | 0.1 (≈ 0.247 µM) | 3.1 (≈ 7.67 µM) | 0.2 (≈ 0.495 µM) | 0.02 (≈ 0.0495 µM) | 0.05 (≈ 0.124 µM) | 0.1 (≈ 0.247 µM) | 0.1 (≈ 0.247 µM) | 0.39 (≈ 0.965 µM) | 1.56 (≈ 3.86 µM) | 100 (≈ 247 µM) | 0.05 (≈ 0.124 µM) | 0.05 (≈ 0.124 µM) | 0.05 (≈ 0.124 µM) | 0.78 (≈ 1.93 µM) | 0.2 (≈ 0.495 µM) | 3.1 (≈ 7.67 µM) | 0.1 (≈ 0.247 µM) | MIC values [21]: 0.1 µg/mL (≈ 0.247 µM); MIC values [22]: 1.56 µg/mL (≈ 3.86 µM); MIC values [23]: 0.39 µg/mL (≈ 0.965 µM); MIC values [24]: 3.1 µg/mL (≈ 7.67 µM); MIC values [25]: 0.05 µg/mL (≈ 0.124 µM); MIC values [26]: 100 µg/mL (≈ 247 µM); MIC values [27]: 0.01 µg/mL (≈ 0.0247 µM); MIC values [28]: 0.02 µg/mL (≈ 0.0495 µM); MIC values [29]: 0.2 µg/mL (≈ 0.495 µM); MIC values [30]: 0.39 µg/mL (≈ 0.965 µM); MIC values [31]: 0.2 µg/mL (≈ 0.495 µM); MIC values [32]: 0.1 µg/mL (≈ 0.247 µM)

From patent publication EP0527889B1, “QUINOLIZINONE TYPE COMPOUNDS” (priority 1990, dated 1991)
